From article PMC3901665, “Characterization of Glycolytic Enzymes - rAldolase and rEnolase of Leishmania donovani, Identified as Th1 Stimulatory Proteins, for Their Immunogenicity and Immunoprophylactic Efficacies against Experimental Visceral Leishmaniasis” (PLoS ONE, 2014)

What was measured:
Type in all cases: biochemical, Leishmania donovani
[1] = test system: T1, rLdEno (L. donovani enolase); assay: spectrophotometric PEP formation at […] nm, Michaelis-Menten; settings: 20 mM Tris-HCl pH 7.5, 2 mM MgSO4, 75 mM KCl, 25°C; 0-10 mM 2PGA
T1 construct: gene ENO; full-length ORF (PCR product 1290 bp), N-terminal 6xHis, pET-28a, E. coli C41(DE3), Ni-NTA

[2] = test system: T2, rLdAld (L. donovani aldolase); assay: hydrazine assay at […] nm, Michaelis-Menten; settings: hydrazine sulfate as detection reagent; 0.1-7 mM substrate; pH and temperature not given
T2 construct: gene ALD; full-length ORF (PCR product 1125 bp), 6xHis tag, pET-28a, E. coli, purified on Ni-NTA

[3] = test system: T1, rLdEno (L. donovani enolase); assay: spectrophotometric at […] nm, Michaelis-Menten; settings: 20 mM Tris-HCl pH 7.5, 2 mM MgSO4, 75 mM KCl, 25°C; 0-7.5 mM PEP; reverse reaction

Compound `O=C(O)[C@@H](CO)OP(=O)(O)O` [2-phosphoglycerate] has a Km [1] of 1540 µM.
Compound `O=P(O)(O)OC[C@H]1OC(O)(COP(=O)(O)O)[C@@H](O)[C@@H]1O` (stereo partly drawn) [D-Fru-1,6-P2] has a Km [2] of 2060 µM.
`C=C(OP(=O)(O)O)C(=O)O` [Phosphoenol pyruvate] showed a Km [3] of 3370 µM.
